Like-named read-outs stand apart in the source and are kept apart here.
Legend:
ENPP-1 ECD [1] = biological target: T1, ENPP-1 ECD (Homo sapiens (Human), UniProt P22413); test: Assay 2: inhibition of ENPP1 hydrolysis of 2′,3′-cGAMP (AMP-Glo, […] enzyme)
Procedure: Assay 2: Compared to the conditions in Assay 1, this assay has a larger dynamic range and ensures the system is under steady-state conditions by reducing the enzyme concentration in the assay.
Test compounds were plated in a 3× dilution scheme in a 384 well plate. […] AMP Detection solution (10 μL) was added to each well, the plate centrifuged and incubated for 60 min.

ENPP-1 ECD [2] = biological target: T1, ENPP-1 ECD; test: Assay 1: inhibition of ENPP1 hydrolysis of 2′,3′-cGAMP (AMP-Glo, […] enzyme)
Procedure: Assay 1: Test compounds were plated in a 3× dilution scheme in a 384 well plate. […] AMP Detection solution (100 μL) was added to each well, the plate centrifuged and incubated for 60 min.

[3] = Assay 2 (KI), ENPP1 hydrolysis of 2′,3′-cGAMP, AMP-Glo, […] ENPP-1, 24 μM cGAMP
[4] = Assay 2 (KI), inhibition of ENPP1 hydrolysis of 2′,3′-cGAMP, no unit in Table 18 (Table 17 legend for this assay uses nM)
[5] = Assay 1 (IC50), ENPP1 hydrolysis of 2′,3′-cGAMP, AMP-Glo
[6] = Assay 1 (IC50), inhibition of ENPP1 hydrolysis of 2′,3′-cGAMP, no unit in Table 18 (Table 17 legend for this assay uses nM)
[7] = read-out: Assay 1 (IC50), ENPP1 hydrolysis of 2′,3′-cGAMP, AMP-Glo
[8] = read-out: Assay 2 (KI), ENPP1 hydrolysis of 2′,3′-cGAMP, AMP-Glo, […] ENPP-1, 24 μM cGAMP
[9] = read-out: Assay 2 (KI), inhibition of ENPP1 hydrolysis of 2′,3′-cGAMP, no unit in Table 18 (Table 17 legend for this assay uses nM)
[10] = read-out: Assay 1 (IC50), inhibition of ENPP1 hydrolysis of 2′,3′-cGAMP, no unit in Table 18 (Table 17 legend for this assay uses nM)

T1 sequence (P22413 98-925): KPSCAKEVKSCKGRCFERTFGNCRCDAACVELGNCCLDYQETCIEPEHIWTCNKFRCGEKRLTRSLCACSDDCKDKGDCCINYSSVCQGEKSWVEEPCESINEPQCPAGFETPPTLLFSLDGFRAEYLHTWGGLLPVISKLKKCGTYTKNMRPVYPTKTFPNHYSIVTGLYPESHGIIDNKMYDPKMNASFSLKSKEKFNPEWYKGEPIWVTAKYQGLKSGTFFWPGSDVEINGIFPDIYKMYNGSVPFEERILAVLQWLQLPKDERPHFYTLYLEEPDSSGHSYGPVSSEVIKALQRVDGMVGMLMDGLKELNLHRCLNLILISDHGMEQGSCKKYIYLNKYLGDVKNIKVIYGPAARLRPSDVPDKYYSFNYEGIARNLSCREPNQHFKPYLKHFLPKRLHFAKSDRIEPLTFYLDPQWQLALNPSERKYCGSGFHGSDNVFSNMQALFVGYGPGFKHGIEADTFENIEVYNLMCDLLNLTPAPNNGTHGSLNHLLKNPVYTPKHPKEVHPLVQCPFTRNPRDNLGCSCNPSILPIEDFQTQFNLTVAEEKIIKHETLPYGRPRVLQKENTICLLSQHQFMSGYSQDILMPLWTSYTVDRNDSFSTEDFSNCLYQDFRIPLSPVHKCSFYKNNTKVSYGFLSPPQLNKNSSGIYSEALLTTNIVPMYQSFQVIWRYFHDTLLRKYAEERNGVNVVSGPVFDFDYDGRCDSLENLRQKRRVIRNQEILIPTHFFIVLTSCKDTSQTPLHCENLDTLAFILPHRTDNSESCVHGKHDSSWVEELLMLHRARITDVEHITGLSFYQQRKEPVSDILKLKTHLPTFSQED

## COc1cc2nccc(Oc3ccc(S(C)(=N)=O)c(F)c3)c2cc1OC (stereo not drawn) [Compound 115, {4-[(6,7-dimethoxyquinolin-4-yl)oxy]-2-fluorophenyl}(imino)methyl-λ^6-sulfanone]
ENPP-1 ECD [1]; [3]
  Ki: 3 to 300 nM
ENPP-1 ECD [1]; [4]
  Ki: 13 nM
ENPP-1 ECD [2]; [5]
  IC50: 10 to 1000 nM
ENPP-1 ECD [2]; [6]
  IC50: 85 nM

## CS(=N)(=O)CCC1CCN(c2ccnc3ccccc23)CC1 (stereo not drawn) [Compound 149, imino(methyl){2-[1-(quinolin-4-yl)piperidin-4-yl]ethyl}-λ^6-sulfanone]
ENPP-1 ECD [1]; [3]
  Ki: > 300 nM
ENPP-1 ECD [1]; [4]
  Ki: 410 nM
ENPP-1 ECD [2]; [6]
  IC50: 1400 nM
ENPP-1 ECD [2]; [7]
  IC50: > 1000 nM

## COc1ccc2c(CC(=O)N3CCS(=N)(=O)CC3)ccnc2c1 [Compound 26, 1-imino-4-[2-(7-methoxyquinolin-4-yl)acetyl]-1λ^6-thiomorpholin-1-one]
ENPP-1 ECD [2]; [6]
  IC50: 8800 nM
ENPP-1 ECD [2]; [7]
  IC50: > 1000 nM

## COc1cc2nccc(Oc3ccc(S(C)(=N)=O)cc3F)c2cc1OC (stereo not drawn) [Compound 116, {4-[(6,7-dimethoxyquinolin-4-yl)oxy]-3-fluorophenyl}(imino)methyl-λ^6-sulfanone]
ENPP-1 ECD [1]; [3]
  Ki: 3 to 300 nM
ENPP-1 ECD [1]; [4]
  Ki: 25 nM
ENPP-1 ECD [2]; [5]
  IC50: 10 to 1000 nM
ENPP-1 ECD [2]; [6]
  IC50: 220 nM

## COc1ccc2c(Oc3cccc(S(C)(=N)=O)c3)ccnc2c1 (stereo not drawn) [Compound 117, imino({3-[(7-methoxyquinolin-4-yl)oxy]phenyl})methyl-λ^6-sulfanone]
ENPP-1 ECD [1]; [3]
  Ki: 3 to 300 nM
ENPP-1 ECD [1]; [4]
  Ki: 94 nM
ENPP-1 ECD [2]; [5]
  IC50: 10 to 1000 nM
ENPP-1 ECD [2]; [6]
  IC50: 180 nM

## COc1ccc2c(Oc3ccc([S@](=N)(=O)C4CC4)cc3)ccnc2c1 [Compound 60b]
ENPP-1 ECD [1]; [8]
  Ki: 3 to 300 nM
ENPP-1 ECD [1]; [9]
  Ki: 93 nM
ENPP-1 ECD [2]; [7]
  IC50: 10 to 1000 nM
ENPP-1 ECD [2]; [10]
  IC50: 520 nM

## COc1ccc2c(Oc3ccc(S(C)(=N)=O)c(F)c3)ccnc2c1 (stereo not drawn) [Compound 10, (2-fluoro-4-((7-methoxyquinolin-4-yl)oxy)phenyl)(imino)(methyl)-λ^6-sulfanone]
ENPP-1 ECD [1]; [3]
  Ki: < 3 nM
ENPP-1 ECD [1]; [4]
  Ki: 2.8 nM
ENPP-1 ECD [2]; [5]
  IC50: 10 to 1000 nM
ENPP-1 ECD [2]; [6]
  IC50: 23 nM

## COc1ccc2c(NCc3ccc(S(C)(=N)=O)cc3)ccnc2c1 (stereo not drawn) [Compound 74, imino(4-(((7-methoxyquinolin-4-yl)amino)methyl)phenyl)(methyl)-λ^6-sulfanone]
ENPP-1 ECD [1]; [3]
  Ki: < 3 nM
ENPP-1 ECD [1]; [4]
  Ki: 1.7 nM
ENPP-1 ECD [2]; [5]
  IC50: 10 to 1000 nM
ENPP-1 ECD [2]; [6]
  IC50: 11 nM

## COc1ccc2c(Oc3ccc(S(C)(=N)=O)cc3)ccnc2c1F (stereo not drawn) [Compound 128, {4-[(8-fluoro-7-methoxyquinolin-4-yl)oxy]phenyl}(imino)methyl-λ^6-sulfanone]
ENPP-1 ECD [2]; [5]
  IC50: 10 to 1000 nM
ENPP-1 ECD [2]; [6]
  IC50: 310 nM

## COc1cc2ncnc(OCc3ccc(S(C)(=N)=O)cc3)c2cc1OC (stereo not drawn) [Compound 14, (4-(((6,7-dimethoxyquinazolin-4-yl)oxy)methyl)phenyl)(imino)(methyl)-λ^6-sulfanone]
ENPP-1 ECD [1]; [3]
  Ki: 3 to 300 nM
ENPP-1 ECD [1]; [4]
  Ki: 15 nM
ENPP-1 ECD [2]; [5]
  IC50: 10 to 1000 nM
ENPP-1 ECD [2]; [6]
  IC50: 110 nM

## COc1cc2ncc(C#N)c(Oc3ccc([S@](C)(=N)=O)cc3)c2cc1F [Compound 44b]
ENPP-1 ECD [1]; [8]
  Ki: > 300 nM
ENPP-1 ECD [1]; [9]
  Ki: 350 nM
ENPP-1 ECD [2]; [7]
  IC50: > 1000 nM
ENPP-1 ECD [2]; [10]
  IC50: 1900 nM

## COc1cccc2c(Oc3ccc(S(C)(=N)=O)cc3)c(C#N)cnc12 (stereo not drawn) [Compound 58, 8-methoxy-4-(4-(S-methylsulfonimidoyl)phenoxy)quinoline-3-carbonitrile]
ENPP-1 ECD [2]; [5]
  IC50: 10 to 1000 nM
ENPP-1 ECD [2]; [6]
  IC50: 51 nM

## COc1cnc2c(Oc3ccc(S(C)(=N)=O)cc3)ccnc2c1 (stereo not drawn) [Compound 76, imino(4-((7-methoxy-1,5-naphthyridin-4-yl)oxy)phenyl)(methyl)-λ^6-sulfanone]
ENPP-1 ECD [2]; [6]
  IC50: 23000 nM
ENPP-1 ECD [2]; [7]
  IC50: > 1000 nM

## CS(=N)(=O)Cc1ccc(-c2ccnc3ccccc23)cc1 (stereo not drawn) [Compound 155, imino(methyl){[4-(quinolin-4-yl)phenyl]methyl}-λ^6-sulfanone]
ENPP-1 ECD [2]; [6]
  IC50: 14000 nM
ENPP-1 ECD [2]; [7]
  IC50: > 1000 nM

## Cc1ccc2ncc(C#N)c(Oc3ccc(S(C)(=N)=O)cc3)c2c1 (stereo not drawn) [Compound 50, 6-methyl-4-(4-(S-methylsulfonimidoyl)phenoxy)quinoline-3-carbonitrile]
ENPP-1 ECD [2]; [6]
  IC50: 2600 nM
ENPP-1 ECD [2]; [7]
  IC50: > 1000 nM

## COc1cc2nccc(Oc3ccc(S(C)(=N)=O)cc3)c2cn1 (stereo not drawn) [Compound 77, imino(4-((7-methoxy-1,6-naphthyridin-4-yl)oxy)phenyl)(methyl)-λ^6-sulfanone]
ENPP-1 ECD [2]; [5]
  IC50: 10 to 1000 nM
ENPP-1 ECD [2]; [6]
  IC50: 57 nM

## COc1ccc2nccc(Oc3ccc(S(C)(=N)=O)cc3)c2n1 (stereo not drawn) [Compound 130, imino({4-[(6-methoxy-1,5-naphthyridin-4-yl)oxy]phenyl})methyl-λ^6-sulfanone]
ENPP-1 ECD [2]; [6]
  IC50: 8100 nM

## COc1ccc2c(-c3ccc(CS(C)(=N)=O)cc3)ccnc2c1 (stereo not drawn) [Compound 88, imino(4-(7-methoxyquinolin-4-yl)benzyl)(methyl)-λ^6-sulfanone]
ENPP-1 ECD [2]; [5]
  IC50: 10 to 1000 nM
ENPP-1 ECD [2]; [6]
  IC50: 920 nM

## COc1cccc2c(OCc3ccc(S(C)(=N)=O)cc3)ccnc12 (stereo not drawn) [Compound 134, imino(4-{[(8-methoxyquinolin-4-yl)oxy]methyl}phenyl)methyl-λ^6-sulfanone]
ENPP-1 ECD [2]; [6]
  IC50: 1100 nM

## COc1cccc2c(N3CCC(C[S@](C)(=N)=O)CC3)ncnc12 [Compound 146b]
ENPP-1 ECD [1]; [9]
  Ki: 66 nM

## COc1cc2nccc(NCc3cccc(S(C)(=N)=O)c3)c2cc1F (stereo not drawn) [Compound 192, (3-{[(6-fluoro-7-methoxyquinolin-4-yl)amino]methyl}phenyl)(imino)methyl-λ^6-sulfanone]
ENPP-1 ECD [1]; [9]
  Ki: 0.58 nM

## COc1cccc2c(N3CCC4(CC3)CCN(S(C)(=N)=O)C4)ncnc12 (stereo not drawn) [Compound 215, imino[8-(8-methoxyquinazolin-4-yl)-2,8-diazaspiro[4.5]decan-2-yl]methyl-λ^6-sulfanone]
ENPP-1 ECD [1]; [4]
  Ki: 3.8 nM

## COc1cc2ncnc(-c3ccc4c(c3)CN([S@@](C)(=N)=O)CC4)c2cc1OC [Compound 37a]
ENPP-1 ECD [1]; [8]
  Ki: 3 to 300 nM
ENPP-1 ECD [1]; [9]
  Ki: 21 nM

## COc1cccc2c(-c3ccc(CCS(C)(=N)=O)cc3)ncnc12 (stereo not drawn) [Compound 154, imino({2-[4-(8-methoxyquinazolin-4-yl)phenyl]ethyl})methyl-λ^6-sulfanone]
ENPP-1 ECD [2]; [6]
  IC50: 1800 nM
ENPP-1 ECD [2]; [7]
  IC50: > 1000 nM

## COc1ccc2c(Oc3ccc(S(C)(=N)=O)cc3)ncnc2c1 (stereo not drawn) [Compound 167, imino({4-[(7-methoxyquinazolin-4-yl)oxy]phenyl})methyl-λ^6-sulfanone]
ENPP-1 ECD [1]; [4]
  Ki: 7.9 nM

## COc1ccc2c(Oc3ccc(S(C)(=N)=O)cc3)ccnc2n1 (stereo not drawn) [Compound 78, imino(4-((7-methoxy-1,8-naphthyridin-4-yl)oxy)phenyl)(methyl)-λ^6-sulfanone]
ENPP-1 ECD [1]; [3]
  Ki: 3 to 300 nM
ENPP-1 ECD [1]; [4]
  Ki: 150 nM

## COc1ccc2c(COc3cccc(S(C)(=N)=O)c3)ccnc2c1 (stereo not drawn) [Compound 232, imino({3-[(7-methoxyquinolin-4-yl)methoxy]phenyl})methyl-λ^6-sulfanone]
ENPP-1 ECD [1]; [4]
  Ki: 3.3 nM

## COc1cccc2c(N3CCC4(CC3)CCN4S(C)(=N)=O)ncnc12 (stereo not drawn) [Compound 214, imino[7-(8-methoxyquinazolin-4-yl)-1,7-diazaspiro[3.5]nonan-1-yl]methyl-λ^6-sulfanone]
ENPP-1 ECD [1]; [4]
  Ki: 110 nM

## COc1cc2nccc(-c3cccc(CCS(C)(=N)=O)c3)c2cc1OC (stereo not drawn) [Compound 204, {2-[3-(6,7-dimethoxyquinolin-4-yl)phenyl]ethyl}(imino)methyl-λ^6-sulfanone]
ENPP-1 ECD [1]; [4]
  Ki: 28 nM

## CC[S@@](=N)(=O)CC1(O)CCN(c2ncnc3c(OC)cccc23)CC1 [Compound 195a]
ENPP-1 ECD [1]; [9]
  Ki: 0.052 nM

## COc1cc2ncnc(N3CCC(CCCS(C)(=N)=O)CC3)c2cc1OC (stereo not drawn) [Compound 145, {3-[1-(6,7-dimethoxyquinazolin-4-yl)piperidin-4-yl]propyl}(imino)methyl-λ^6-sulfanone]
ENPP-1 ECD [1]; [3]
  Ki: 3 to 300 nM
ENPP-1 ECD [1]; [4]
  Ki: 8.7 nM

## COc1ccc2c(C(=O)N3CCS(=N)(=O)CC3)ccnc2c1 [Compound 6, 1-imino-4-(7-methoxyquinoline-4-carbonyl)-1λ^6-thiomorpholin-1-one]
ENPP-1 ECD [2]; [6]
  IC50: > 30000 nM
ENPP-1 ECD [2]; [7]
  IC50: > 1000 nM

## COc1cc(F)cc2c(N3CCC(CS(C)(=N)=O)CC3)ncnc12 (stereo not drawn) [Compound 183b]
ENPP-1 ECD [1]; [9]
  Ki: > 150 nM

## COc1ccc2c(O[C@H](C)c3cccc([S@](C)(=N)=O)c3)ccnc2c1 [Compound 178b]
ENPP-1 ECD [1]; [9]
  Ki: 34 nM

## COc1ccc2c(OC3CCN(S(C)(=N)=O)CC3)ccnc2c1 (stereo not drawn) [Compound 235, imino({4-[(7-methoxyquinolin-4-yl)oxy]piperidin-1-yl})methyl-λ^6-sulfanone]
ENPP-1 ECD [1]; [4]
  Ki: 8 nM

## COc1ccc2ncc(C#N)c(Oc3ccc(S(C)(=N)=O)cc3)c2c1 (stereo not drawn) [Compound 47, 6-methoxy-4-(4-(S-methylsulfonimidoyl)phenoxy)quinoline-3-carbonitrile]
ENPP-1 ECD [2]; [5]
  IC50: 10 to 1000 nM
ENPP-1 ECD [2]; [6]
  IC50: 180 nM

## CS(=N)(=O)c1ccc(Oc2c(C#N)cnc3cc(F)ccc23)cc1 (stereo not drawn) [Compound 131, 7-fluoro-4-{4-[imino(methyl)oxo-λ^6-sulfanyl]phenoxy}quinoline-3-carbonitrile]
ENPP-1 ECD [2]; [6]
  IC50: > 30000 nM
ENPP-1 ECD [2]; [7]
  IC50: > 1000 nM

## COc1cc2ncnc(N3CC4(CC(C[S@@](C)(=N)=O)C4)C3)c2cc1OC [Compound 237a]
ENPP-1 ECD [1]; [9]
  Ki: 2.4 nM

## COc1cc2nccc(-c3ccc4c(c3)CN([S@](C)(=N)=O)CC4)c2cc1OC [Compound 161b]
ENPP-1 ECD [1]; [8]
  Ki: < 3 nM
ENPP-1 ECD [1]; [9]
  Ki: 0.64 nM

## COc1cc2nccc(N3CCC4(CC3)CCN([S@](=N)(=O)C3CC3)C4)c2cc1F [Compound 218b]
ENPP-1 ECD [1]; [9]
  Ki: 1.5 nM

## COc1ccc2c(-n3cc4c(n3)CCN(S(C)(=N)=O)C4)ccnc2c1 (stereo not drawn) [Compound 233, imino[2-(7-methoxyquinolin-4-yl)-2H,4H,5H,6H,7H-pyrazolo[4,3-c]pyridin-5-yl]methyl-λ^6-sulfanone]
ENPP-1 ECD [1]; [4]
  Ki: > 500 nM
